Experimental data taken from US20220211630A1, “SOLID NANOPARTICLE FORMULATION OF WATER INSOLUBLE PHARMACEUTICAL SUBSTANCES WITH REDUCED OSTWALD RIPENING AND IMMEDIATE DRUG RELEASE FOLLOWING INTRAVENOUS ADMINISTRATION” (priority 2019, published 2022).
≈ marks a conversion by molar mass, not a printed value. Like-named read-outs stand apart in the source and are kept apart here.

Assays:
human CB1 receptors = human CB1 receptors (Homo sapiens, UniProt P21554); conditions: read-out: Affinity; cited from earlier work
human CB2 receptors = human CB2 receptors (Homo sapiens, UniProt P34972); conditions: read-out: Affinity; cited from earlier work
[1] = cited from earlier work
[2] = oral, human gastrointestinal tract; cited from earlier work
[3] = Drug solubility in supernatant of reconstituted suspension after ultracentrifugation (HPLC); type: physicochemical; conditions: room temperature
Description: The quantities of docetaxel, rapamycin and 17-AAG and human albumin in the supernatant were measured by high performance liquid chromatography (HPLC) and the results are summarized in Table 9.
The quantities of ixabepilone and rapamycin in the supernatant were measured by high performance liquid chromatography (HPLC) and the results are summarized in Table 18.

[4] = LBI-1103 (Lot RAD002) reconstituted suspension (5 mg/mL Docetaxel; 5 mg/mL Rapamycin and 10 mg/mL 17-AAG), 87,000 rpm 1 hour
[5] = LBI-0728 (Lot CRX001) reconstituted suspension (2 mg/mL Ixabepilone and 5 mg/mL Rapamycin), 87,000 rpm 1 hour

Chain of human CB1 receptors (P21554 whole entry): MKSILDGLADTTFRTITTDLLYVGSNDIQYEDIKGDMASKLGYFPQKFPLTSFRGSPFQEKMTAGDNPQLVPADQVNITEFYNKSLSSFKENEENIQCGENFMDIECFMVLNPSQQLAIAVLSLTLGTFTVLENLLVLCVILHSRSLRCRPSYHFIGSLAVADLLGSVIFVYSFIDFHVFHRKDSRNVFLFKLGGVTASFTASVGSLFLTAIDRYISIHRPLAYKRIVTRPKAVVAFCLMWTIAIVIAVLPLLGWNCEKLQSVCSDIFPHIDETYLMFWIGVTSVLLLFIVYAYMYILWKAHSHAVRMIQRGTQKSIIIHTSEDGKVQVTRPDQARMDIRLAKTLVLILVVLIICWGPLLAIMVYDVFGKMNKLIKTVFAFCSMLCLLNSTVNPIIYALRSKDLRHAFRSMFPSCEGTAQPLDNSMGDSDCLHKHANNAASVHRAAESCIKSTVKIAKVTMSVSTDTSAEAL
Chain of human CB2 receptors (P34972 whole entry): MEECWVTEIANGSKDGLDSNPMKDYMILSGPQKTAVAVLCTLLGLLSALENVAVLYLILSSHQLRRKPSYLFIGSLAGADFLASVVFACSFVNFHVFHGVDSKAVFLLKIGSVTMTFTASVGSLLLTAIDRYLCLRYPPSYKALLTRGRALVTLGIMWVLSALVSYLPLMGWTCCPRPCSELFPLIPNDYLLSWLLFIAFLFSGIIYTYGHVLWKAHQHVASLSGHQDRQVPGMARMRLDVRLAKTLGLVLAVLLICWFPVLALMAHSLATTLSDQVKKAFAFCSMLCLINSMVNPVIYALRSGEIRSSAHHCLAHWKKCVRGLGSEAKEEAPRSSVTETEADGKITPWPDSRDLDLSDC

Structure (SMILES) | solubility [3, 4] | Solubility in water [1] | further results
CCCCCCC(C)(C)c1cc(O)c2c(c1)OC(C)(C)C1CCC(=O)CC21 (racemic) [Nabilone, (±)-trans-3-(1,1-dimethylheptyl)-6,6a,7,8,10,10a-hexahydro-1-hydroxy-6-6-dimethyl-9H-dibenzo[b,d]pyran-9-one] |  |  | Ki (human CB1 receptors): 2.2 nM; Ki (human CB2 receptors): 1.8 nM; Solubility in water ([1]; pH values ranging from 1.2 to 7.0): less than 0.5 mg/L; Absorption when administered orally [2]: completely absorbed
CC(=O)O[C@@]12CO[C@@H]1C[C@H](O)[C@@]1(C)C(=O)[C@H](O)C3=C(C)[C@@H](OC(=O)[C@H](O)[C@@H](NC(=O)OC(C)(C)C)c4ccccc4)C[C@@](O)([C@@H](OC(=O)c4ccccc4)[C@H]21)C3(C)C [Docetaxel] | 0.114 mg/mL | about 14 mg/L | 
CO[C@H]1C[C@@H]2CC[C@@H](C)[C@@](O)(O2)C(=O)C(=O)N2CCCC[C@H]2C(=O)O[C@H]([C@H](C)C[C@@H]2CC[C@@H](OCCO)[C@H](OC)C2)CC(=O)[C@H](C)/C=C(\C)[C@@H](O)[C@@H](OC)C(=O)[C@H](C)C[C@H](C)/C=C/C=C/C=C/1C [Everolimus, 40-O-(2-Hydroxy)ethyl rapamycin] |  |  | solubility ([3]; LBI-0609 (Lot CEP002) reconstituted suspension (X mg/mL Everolimus and 5 mg/mL Paclitaxel), 87,000 rpm 1 hour): 0.014 mg/mL (≈ 14.6 µM)
C=CCNC1=C2C[C@@H](C)C[C@H](OC)[C@H](O)[C@@H](C)/C=C(\C)[C@H](OC(N)=O)[C@@H](OC)/C=C\C=C(/C)C(=O)NC(=CC1=O)C2=O [Example 17AAG, 17-allylaminogeldanamycin] | 0.108 mg/mL |  | 
C/C(=C\c1csc(C)n1)[C@@H]1C[C@@H]2O[C@]2(C)CCC[C@H](C)[C@H](O)[C@@H](C)C(=O)C(C)(C)[C@@H](O)CC(=O)N1 [Ixabepilone] |  | about 3.5 mg/L | solubility [3, 5]: 0.407 mg/mL
CC(=O)O[C@H]1C(=O)[C@@]2(C)[C@H]([C@H](OC(=O)c3ccccc3)[C@]3(O)C[C@H](OC(=O)[C@H](O)[C@@H](NC(=O)c4ccccc4)c4ccccc4)C(C)=C1C3(C)C)[C@]1(OC(C)=O)CO[C@@H]1C[C@@H]2O [Paclitaxel] |  | about 0.4 mg/L | Drug Solubility in Supernatant ([3]; LBI-0609 (Lot CEP002) reconstituted suspension (Everolimus and 5 mg/mL Paclitaxel), 87,000 rpm 1 hour): 0.082 mg/mL
CO[C@H]1C[C@@H]2CC[C@@H](C)[C@@](O)(O2)C(=O)C(=O)N2CCCC[C@H]2C(=O)O[C@H]([C@H](C)C[C@@H]2CC[C@@H](O)[C@H](OC)C2)CC(=O)[C@H](C)/C=C(\C)[C@@H](O)[C@@H](OC)C(=O)[C@H](C)C[C@H](C)/C=C/C=C/C=C/1C [Rapamycin] | 0.019 mg/mL | insoluble in water | solubility [3, 5]: 0.022 mg/mL
CO[C@H]1C(=O)[C@]2(C)[C@@H](OC)C[C@H]3OC[C@@]3(OC(C)=O)[C@H]2[C@H](OC(=O)c2ccccc2)[C@]2(O)C[C@H](OC(=O)[C@H](O)[C@@H](NC(=O)OC(C)(C)C)c3ccccc3)C(C)=C1C2(C)C [cabazitaxel] |  | about 8 mg/L | 
